Experiments:
Assay in all cases: biochemical
Design in all cases: PDE enzyme inhibition, 3H-cAMP / 3H-cGMP scintillation proximity assay
PDE10A = biological target: T1, PDE10A (Homo sapiens, UniProt Q9Y233)
T1 construct: full-length, Sf9 cell-free extract
Method: (§1) PDE activity assays were performed as previously described. Briefly, cell-free extracts were prepared from Sf9 insect cells recombinantly expressing full-length human PDEs (PDE2A, 3A, 3B, 4B, 7B, 8A, 9A, 10A, 11A). PDE5 was purified from human platelets by homogenization (Microfluidizer, 800 bar, 3 passages), centrifugation (75,000 × g, 60 min, 4 °C), and ion exchange chromatography of the supernatant on a Mono Q 10/10 column (linear NaCl gradient, eluted with 0.2–0.3 M NaCl in a buffer containing 20 mM Hepes pH 7.2 and 2 mM MgCl2). Fractions containing PDE5 activity were pooled and stored at −80 °C. PDE6 was purified from rod outer segments of bovine retinae by Dr. Körschen, Forschungszentrum Jülich, Germany[34]. Bovine PDE1 was purchased from Sigma-Aldrich (P9529, Taufkirchen, Germany). Enzyme inhibition studies were carried out using the commercially available 3H-cAMP and 3H-cGMP Scintillation Proximity Assay (SPA) systems (RPNQ0150, Perkin-Elmer, Rodgau, Germany).

PDE11A = biological target: T2, PDE11A (Homo sapiens, UniProt Q9HCR9)
T2 construct: full-length, Sf9 cell-free extract
Method: as §1

PDE2A = biological target: T3, PDE2A (Homo sapiens, UniProt O00408)
T3 construct: full-length, Sf9 cell-free extract
Method: as §1

PDE3A = biological target: T4, PDE3A (Homo sapiens, UniProt Q14432)
T4 construct: full-length, Sf9 cell-free extract
Method: as §1

PDE3B = biological target: T5, PDE3B (Homo sapiens, UniProt Q13370)
T5 construct: full-length human PDE3B, Sf9 cell-free extract
Method: as §1

PDE5 = biological target: T6, PDE5 (Homo sapiens, UniProt O76074)
T6 construct: gene PDE5A; native, purified from human platelets
Method: as §1

PDE6 = biological target: T7, PDE6 (Bos taurus, UniProt P11541+P23439)
T7 construct: gene PDE6A; native, purified from rod outer segments of bovine retinae
T7 sequence (P11541 1-859): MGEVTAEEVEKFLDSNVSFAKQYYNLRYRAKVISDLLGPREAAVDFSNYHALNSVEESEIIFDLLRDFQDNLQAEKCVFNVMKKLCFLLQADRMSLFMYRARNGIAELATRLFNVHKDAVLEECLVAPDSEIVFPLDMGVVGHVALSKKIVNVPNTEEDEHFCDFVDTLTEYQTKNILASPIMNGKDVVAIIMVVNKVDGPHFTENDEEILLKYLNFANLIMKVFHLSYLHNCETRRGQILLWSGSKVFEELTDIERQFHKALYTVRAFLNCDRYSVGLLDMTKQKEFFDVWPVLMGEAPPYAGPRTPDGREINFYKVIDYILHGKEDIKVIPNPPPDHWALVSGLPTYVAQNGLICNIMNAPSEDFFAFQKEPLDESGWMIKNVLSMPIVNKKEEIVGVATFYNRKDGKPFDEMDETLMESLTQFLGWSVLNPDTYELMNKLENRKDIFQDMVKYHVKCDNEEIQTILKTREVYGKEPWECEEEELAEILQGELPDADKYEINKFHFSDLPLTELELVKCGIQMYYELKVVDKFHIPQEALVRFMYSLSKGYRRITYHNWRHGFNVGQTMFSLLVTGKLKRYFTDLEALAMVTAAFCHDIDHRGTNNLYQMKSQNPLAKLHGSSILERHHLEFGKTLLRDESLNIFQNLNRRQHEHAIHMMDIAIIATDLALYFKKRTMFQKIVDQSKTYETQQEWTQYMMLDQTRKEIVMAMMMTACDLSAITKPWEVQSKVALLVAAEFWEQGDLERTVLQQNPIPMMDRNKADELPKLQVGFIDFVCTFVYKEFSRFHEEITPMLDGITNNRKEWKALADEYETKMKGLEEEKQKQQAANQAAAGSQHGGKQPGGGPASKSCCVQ
T7 sequence (P23439 1-853): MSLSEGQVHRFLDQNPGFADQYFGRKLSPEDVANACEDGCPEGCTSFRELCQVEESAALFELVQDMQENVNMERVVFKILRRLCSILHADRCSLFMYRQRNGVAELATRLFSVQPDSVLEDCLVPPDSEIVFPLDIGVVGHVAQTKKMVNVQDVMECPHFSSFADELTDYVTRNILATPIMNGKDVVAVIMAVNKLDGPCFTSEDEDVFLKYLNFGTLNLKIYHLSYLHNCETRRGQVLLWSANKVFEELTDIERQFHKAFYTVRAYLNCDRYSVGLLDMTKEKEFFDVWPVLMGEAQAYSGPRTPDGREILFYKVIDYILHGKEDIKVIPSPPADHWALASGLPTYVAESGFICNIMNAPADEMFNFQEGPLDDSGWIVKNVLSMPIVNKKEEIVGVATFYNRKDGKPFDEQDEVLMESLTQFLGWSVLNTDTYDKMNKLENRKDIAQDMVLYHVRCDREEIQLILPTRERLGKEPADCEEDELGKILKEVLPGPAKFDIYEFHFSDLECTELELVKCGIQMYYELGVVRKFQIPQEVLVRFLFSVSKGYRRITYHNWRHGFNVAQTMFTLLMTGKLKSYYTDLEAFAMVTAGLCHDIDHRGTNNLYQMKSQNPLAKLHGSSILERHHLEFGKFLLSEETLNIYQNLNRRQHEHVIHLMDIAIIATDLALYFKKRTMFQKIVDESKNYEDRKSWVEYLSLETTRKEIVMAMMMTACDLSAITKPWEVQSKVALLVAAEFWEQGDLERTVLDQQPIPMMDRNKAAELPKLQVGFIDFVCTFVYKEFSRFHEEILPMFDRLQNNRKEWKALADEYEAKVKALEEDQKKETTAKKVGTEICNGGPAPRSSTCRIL
Method: as §1

PDE7B = biological target: T8, PDE7B (Homo sapiens, UniProt Q9NP56)
T8 construct: full-length, Sf9 cell-free extract
Method: as §1

PDE8A = biological target: T9, PDE8A (Homo sapiens, UniProt O60658)
T9 construct: full-length, Sf9 cell-free extract
Method: as §1

PDE9A = biological target: T10, PDE9A (Homo sapiens, UniProt O76083)
T10 construct: full-length, Sf9 cell-free extract
Method: as §1

T2 sequence (Q9HCR9 whole entry): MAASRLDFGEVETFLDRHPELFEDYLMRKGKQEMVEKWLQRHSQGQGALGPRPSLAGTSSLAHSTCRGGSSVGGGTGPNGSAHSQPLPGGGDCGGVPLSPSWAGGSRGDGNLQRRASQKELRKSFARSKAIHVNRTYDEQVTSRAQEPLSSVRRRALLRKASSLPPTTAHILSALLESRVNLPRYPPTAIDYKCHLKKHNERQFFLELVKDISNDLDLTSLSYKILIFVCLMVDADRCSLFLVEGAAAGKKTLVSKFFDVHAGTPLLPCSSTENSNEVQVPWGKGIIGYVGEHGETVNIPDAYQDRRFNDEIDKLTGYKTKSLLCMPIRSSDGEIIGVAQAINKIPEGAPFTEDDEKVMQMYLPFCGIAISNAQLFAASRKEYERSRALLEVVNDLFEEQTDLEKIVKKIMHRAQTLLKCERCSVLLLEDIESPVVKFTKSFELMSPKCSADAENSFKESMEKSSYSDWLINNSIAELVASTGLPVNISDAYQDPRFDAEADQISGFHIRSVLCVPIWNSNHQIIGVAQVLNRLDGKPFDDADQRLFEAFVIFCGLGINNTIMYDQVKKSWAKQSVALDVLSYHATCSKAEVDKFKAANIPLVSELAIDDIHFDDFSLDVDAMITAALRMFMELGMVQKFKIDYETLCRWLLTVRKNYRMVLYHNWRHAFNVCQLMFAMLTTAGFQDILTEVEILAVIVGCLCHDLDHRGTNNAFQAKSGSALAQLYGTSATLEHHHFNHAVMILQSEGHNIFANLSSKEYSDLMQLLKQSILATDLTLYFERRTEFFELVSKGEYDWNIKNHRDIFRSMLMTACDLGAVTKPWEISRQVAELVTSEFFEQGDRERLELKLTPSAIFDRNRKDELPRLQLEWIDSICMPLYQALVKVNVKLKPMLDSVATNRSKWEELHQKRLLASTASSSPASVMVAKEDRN
T9 sequence (O60658 whole entry): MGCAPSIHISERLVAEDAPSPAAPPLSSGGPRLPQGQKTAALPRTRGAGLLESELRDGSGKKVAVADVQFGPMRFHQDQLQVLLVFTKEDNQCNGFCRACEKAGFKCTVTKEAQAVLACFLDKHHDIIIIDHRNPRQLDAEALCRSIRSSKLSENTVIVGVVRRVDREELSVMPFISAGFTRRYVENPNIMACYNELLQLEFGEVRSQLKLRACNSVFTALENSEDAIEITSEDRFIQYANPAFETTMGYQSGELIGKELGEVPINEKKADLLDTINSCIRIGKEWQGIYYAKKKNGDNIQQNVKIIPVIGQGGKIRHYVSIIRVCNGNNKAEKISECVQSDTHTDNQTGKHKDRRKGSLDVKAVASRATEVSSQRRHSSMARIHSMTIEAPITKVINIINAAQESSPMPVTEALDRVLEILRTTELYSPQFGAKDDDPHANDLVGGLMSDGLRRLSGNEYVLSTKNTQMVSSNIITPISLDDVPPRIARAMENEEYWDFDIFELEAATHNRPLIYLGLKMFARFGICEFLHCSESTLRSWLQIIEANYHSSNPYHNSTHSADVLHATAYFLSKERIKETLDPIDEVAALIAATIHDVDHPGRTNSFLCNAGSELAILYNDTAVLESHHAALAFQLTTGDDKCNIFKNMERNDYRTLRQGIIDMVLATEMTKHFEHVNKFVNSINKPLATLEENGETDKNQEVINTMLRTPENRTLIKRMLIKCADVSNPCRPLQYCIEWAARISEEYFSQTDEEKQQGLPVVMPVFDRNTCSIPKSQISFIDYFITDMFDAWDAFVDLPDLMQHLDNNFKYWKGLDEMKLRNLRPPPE
T4 sequence (Q14432 whole entry): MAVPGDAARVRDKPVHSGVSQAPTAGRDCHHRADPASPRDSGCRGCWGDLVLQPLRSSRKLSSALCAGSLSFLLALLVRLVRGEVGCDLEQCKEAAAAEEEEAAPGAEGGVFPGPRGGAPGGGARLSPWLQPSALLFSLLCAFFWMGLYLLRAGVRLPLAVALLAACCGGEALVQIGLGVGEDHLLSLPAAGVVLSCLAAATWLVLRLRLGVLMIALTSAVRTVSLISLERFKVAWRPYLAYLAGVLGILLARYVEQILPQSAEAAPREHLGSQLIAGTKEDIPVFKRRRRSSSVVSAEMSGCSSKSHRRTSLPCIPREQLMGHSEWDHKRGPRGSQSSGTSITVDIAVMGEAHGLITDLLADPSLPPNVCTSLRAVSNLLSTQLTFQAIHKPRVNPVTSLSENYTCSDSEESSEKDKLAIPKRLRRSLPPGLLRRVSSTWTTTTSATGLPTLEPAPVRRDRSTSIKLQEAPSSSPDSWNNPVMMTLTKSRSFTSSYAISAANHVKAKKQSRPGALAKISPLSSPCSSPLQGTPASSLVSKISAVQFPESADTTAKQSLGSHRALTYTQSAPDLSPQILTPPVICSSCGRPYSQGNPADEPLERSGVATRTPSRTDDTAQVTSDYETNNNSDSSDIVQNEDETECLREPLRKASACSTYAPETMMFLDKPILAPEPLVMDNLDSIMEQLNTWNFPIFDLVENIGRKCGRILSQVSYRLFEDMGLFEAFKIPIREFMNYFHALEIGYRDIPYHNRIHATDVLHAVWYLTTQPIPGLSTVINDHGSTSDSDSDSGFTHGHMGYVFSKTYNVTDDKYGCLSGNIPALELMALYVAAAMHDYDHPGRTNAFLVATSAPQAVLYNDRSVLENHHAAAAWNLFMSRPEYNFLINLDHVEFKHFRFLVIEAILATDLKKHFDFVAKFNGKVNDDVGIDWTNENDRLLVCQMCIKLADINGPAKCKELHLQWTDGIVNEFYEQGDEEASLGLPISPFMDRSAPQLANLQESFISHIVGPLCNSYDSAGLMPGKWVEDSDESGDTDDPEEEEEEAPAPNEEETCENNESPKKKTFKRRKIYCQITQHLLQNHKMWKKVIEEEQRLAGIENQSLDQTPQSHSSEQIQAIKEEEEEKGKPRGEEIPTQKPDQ
T3 sequence (O00408 whole entry): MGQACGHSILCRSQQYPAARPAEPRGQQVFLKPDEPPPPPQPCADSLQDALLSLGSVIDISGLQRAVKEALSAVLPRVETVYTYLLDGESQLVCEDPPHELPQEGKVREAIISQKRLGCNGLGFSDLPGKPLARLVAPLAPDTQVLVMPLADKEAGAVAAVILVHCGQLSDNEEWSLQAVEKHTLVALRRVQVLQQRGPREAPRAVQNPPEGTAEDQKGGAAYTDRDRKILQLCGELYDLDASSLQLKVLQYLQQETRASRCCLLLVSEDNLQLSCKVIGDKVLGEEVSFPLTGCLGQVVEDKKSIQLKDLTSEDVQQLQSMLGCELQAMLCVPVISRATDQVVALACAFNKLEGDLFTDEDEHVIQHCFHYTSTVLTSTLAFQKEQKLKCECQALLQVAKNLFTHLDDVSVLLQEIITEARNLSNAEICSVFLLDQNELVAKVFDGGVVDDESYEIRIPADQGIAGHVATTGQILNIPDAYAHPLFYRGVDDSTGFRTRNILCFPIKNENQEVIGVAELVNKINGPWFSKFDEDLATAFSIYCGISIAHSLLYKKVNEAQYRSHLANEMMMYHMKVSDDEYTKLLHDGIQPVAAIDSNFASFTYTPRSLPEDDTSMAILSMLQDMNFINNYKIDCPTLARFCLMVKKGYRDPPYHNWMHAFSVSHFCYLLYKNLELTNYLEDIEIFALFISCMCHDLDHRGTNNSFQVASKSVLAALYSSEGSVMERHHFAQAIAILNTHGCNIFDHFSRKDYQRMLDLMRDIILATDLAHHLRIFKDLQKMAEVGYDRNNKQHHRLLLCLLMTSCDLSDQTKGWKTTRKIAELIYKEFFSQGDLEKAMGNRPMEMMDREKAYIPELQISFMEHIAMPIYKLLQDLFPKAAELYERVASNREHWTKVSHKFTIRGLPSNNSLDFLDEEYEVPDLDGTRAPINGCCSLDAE
T8 sequence (Q9NP56 whole entry): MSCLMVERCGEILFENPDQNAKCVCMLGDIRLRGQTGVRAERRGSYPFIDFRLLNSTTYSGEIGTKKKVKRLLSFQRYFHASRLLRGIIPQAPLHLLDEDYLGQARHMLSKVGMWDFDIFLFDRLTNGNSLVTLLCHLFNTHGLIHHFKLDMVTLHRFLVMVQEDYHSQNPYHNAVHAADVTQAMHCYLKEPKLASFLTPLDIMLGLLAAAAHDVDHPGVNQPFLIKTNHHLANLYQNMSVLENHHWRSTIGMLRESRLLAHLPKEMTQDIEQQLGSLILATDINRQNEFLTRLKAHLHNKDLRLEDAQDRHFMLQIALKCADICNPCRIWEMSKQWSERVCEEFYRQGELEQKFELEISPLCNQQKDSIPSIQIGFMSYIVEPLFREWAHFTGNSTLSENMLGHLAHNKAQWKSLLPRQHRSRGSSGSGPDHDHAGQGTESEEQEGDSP
T10 sequence (O76083 whole entry): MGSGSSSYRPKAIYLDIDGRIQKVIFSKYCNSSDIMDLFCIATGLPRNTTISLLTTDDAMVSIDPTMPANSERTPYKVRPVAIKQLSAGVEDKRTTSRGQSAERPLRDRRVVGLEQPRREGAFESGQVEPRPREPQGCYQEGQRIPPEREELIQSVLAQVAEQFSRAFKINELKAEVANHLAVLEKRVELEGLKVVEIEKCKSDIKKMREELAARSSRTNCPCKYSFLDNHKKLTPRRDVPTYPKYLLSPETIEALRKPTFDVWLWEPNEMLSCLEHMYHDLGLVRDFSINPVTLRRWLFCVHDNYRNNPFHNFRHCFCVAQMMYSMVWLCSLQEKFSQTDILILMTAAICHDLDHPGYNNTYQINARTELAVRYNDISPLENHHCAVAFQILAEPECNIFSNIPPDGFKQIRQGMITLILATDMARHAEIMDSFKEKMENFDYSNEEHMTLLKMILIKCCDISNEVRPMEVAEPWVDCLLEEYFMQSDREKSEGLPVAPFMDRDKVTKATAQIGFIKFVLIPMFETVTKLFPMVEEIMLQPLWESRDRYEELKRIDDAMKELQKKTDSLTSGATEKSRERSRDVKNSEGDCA

IC50 (PDE10A): 49.8 nM | IC50 (PDE11A): 1000 nM | IC50 (PDE2A): 785 nM | IC50 (PDE3A): 0.023 nM | IC50 (PDE3B): 0.05 nM | IC50 (PDE5): 870 nM | IC50 (PDE6): 1200 nM | IC50 (PDE7B): > 10 µM | IC50 (PDE8A): 8 µM | IC50 (PDE9A): > 10 µM
Structure (SMILES): COc1cc2c(cc1OC)-c1c/c(=N\c3c(C)cc(C)cc3C)n(C)c(=O)n1CC2 [trequinsin]

Reference: publication PMC8285493 (Nature Communications, 2021)
